# Experimental data taken from PMC7756392, “Syntheses of Thailandepsin B Pseudo‐Natural Products: Access to New Highly Potent HDAC Inhibitors via Late‐Stage Modification” (Chemistry (Weinheim an Der Bergstrasse, Germany), 2020).
# Experiments:
# HDAC in HeLa cells = assay: Cellular HDAC activity assay, HeLa; assay type: cell-based; conditions: for IC50: read-out: cellular HDAC inhibition IC50
# Procedure: Cellular trypsin-based activity assay:13 1 x 10^4 Hela cells (50 µL) were seeded in sterile dark 96-well microtiter plates (Perkin Elmer) and incubated overnight at 37 °C and 5% CO2 atmosphere. The next day, the medium was aspirated and the cells were incubated with different inhibitor concentrations or DMSO, diluted in 50 µL m edium without supplements and phenol red. After 2 h incubation time, 50 µL of the HDAC substrate MAL (Boc -Lys(Ac)-AMC) were added to a final concentration of 150 µM and the plate was incubated for 2 h at 37°C and 5%
# CO2. The reaction was stopped by adding 50 µL of stop solution (50 mM Tris, 137 mM NaCl, 1 mM MgCl2, 2.7 mM KCl, 1 µM TSA, 0.1% Igepal, 1 mg/ml Trypsin). After another 20 min of incubation, the fluorescence signal (λex = 390 nm, λem = 460 nm) was measured on a BMG LABTECH POLARstar OPTIMA plate reader (BMG Labtechnologies, Germany). […]
# human recombinant HDAC6 = molecular target: T1, human recombinant HDAC6 (Homo sapiens, UniProt Q9UBN7); assay: ZMAL trypsin assay, HDAC6; assay type: biochemical; conditions: for inhibition at 10 µM: ZMAL trypsin assay
# T1 construct: purchased BPS Bioscience 50006
# T1 sequence (Q9UBN7 1-1215): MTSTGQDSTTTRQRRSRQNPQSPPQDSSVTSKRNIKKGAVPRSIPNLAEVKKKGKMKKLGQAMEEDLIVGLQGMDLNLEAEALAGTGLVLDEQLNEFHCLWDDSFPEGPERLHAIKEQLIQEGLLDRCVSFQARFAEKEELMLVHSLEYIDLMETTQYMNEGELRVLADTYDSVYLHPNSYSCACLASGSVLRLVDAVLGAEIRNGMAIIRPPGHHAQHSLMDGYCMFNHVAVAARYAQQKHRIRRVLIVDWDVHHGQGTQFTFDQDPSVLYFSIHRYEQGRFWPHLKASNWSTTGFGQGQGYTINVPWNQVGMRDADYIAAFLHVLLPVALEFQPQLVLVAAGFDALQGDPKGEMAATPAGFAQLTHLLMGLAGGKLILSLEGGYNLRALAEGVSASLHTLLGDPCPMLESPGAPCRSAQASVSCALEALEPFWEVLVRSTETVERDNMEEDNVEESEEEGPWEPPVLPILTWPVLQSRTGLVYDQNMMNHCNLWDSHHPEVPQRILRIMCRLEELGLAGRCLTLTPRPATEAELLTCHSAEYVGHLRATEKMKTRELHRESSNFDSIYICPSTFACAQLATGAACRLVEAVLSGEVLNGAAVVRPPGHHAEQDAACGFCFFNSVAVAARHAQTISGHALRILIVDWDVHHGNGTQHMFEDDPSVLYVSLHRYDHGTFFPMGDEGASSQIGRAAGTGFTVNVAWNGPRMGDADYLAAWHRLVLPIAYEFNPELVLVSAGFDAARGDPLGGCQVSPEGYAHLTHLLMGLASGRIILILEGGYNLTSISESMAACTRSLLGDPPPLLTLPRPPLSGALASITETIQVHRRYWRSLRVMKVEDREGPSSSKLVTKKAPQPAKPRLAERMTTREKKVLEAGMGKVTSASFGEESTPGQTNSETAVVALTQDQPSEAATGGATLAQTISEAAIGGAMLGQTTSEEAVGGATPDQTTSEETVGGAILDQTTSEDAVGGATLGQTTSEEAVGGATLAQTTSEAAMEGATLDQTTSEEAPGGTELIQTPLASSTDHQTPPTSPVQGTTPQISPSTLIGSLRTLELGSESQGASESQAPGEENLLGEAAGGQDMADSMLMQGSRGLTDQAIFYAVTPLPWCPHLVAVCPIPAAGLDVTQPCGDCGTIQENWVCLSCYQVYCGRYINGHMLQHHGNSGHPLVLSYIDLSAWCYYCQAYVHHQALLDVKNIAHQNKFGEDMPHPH
# Procedure: (§1) [28] Assays for HDAC1/6 were prepared according to: B. Heltweg , J. Trapp , M. Jung , Methods 2005, 36, 332–337; assays for HDAC8 were prepared according to: J. Senger , J. Melesina , M. Marek , C. Romier , I. Oehme , O. Witt , W. Sippl , M. Jung , J. Med. Chem. 2016, 59, 1545–1555. […]
# (§2) hHDAC1/6: Activity assays were performed in OptiPlateTM-96 F black microplates (PerkinElmer). Commercial available enzymes (human recombinant HDAC1; BPS Bioscience, catalog no. 50051 and human recombinant HDAC6; BPS Bioscience, catalog no. 50006) were used. Total assay volume of 60 µL contains 42 µl of assay buffer (50 mM Tris -HCl, pH 8.0, 137 mM NaCl, 2.7 mM KCl, 1 mM MgCl2, 0.2 mM TCEP and 1 mg/mL bovine serum albumin), 10 µL of enzyme solution in assay buffer, 3 µL of increasing concentrations of inhibitors in DMSO and 5 μL of the fluorogenic substrate ZMAL (Z -(Ac)Lys-AMC) (126 μM). After incubation (90 min, 37 °C) 60 µL of stop solution, containing 5 μL Trichostatin A (TSA) (33 μM) and 10 μL trypsin (6 mg/mL) in trypsin buffer (Tris-HCl 50 mM, pH 8.0, NaCl 100 mM), were added. […]
# human recombinant HDAC1 = molecular target: T2, human recombinant HDAC1 (Homo sapiens, UniProt Q13547); assay: ZMAL trypsin assay, HDAC1; assay type: biochemical; conditions: ZMAL trypsin assay
# T2 construct: purchased BPS Bioscience 50051
# T2 sequence (Q13547 whole entry): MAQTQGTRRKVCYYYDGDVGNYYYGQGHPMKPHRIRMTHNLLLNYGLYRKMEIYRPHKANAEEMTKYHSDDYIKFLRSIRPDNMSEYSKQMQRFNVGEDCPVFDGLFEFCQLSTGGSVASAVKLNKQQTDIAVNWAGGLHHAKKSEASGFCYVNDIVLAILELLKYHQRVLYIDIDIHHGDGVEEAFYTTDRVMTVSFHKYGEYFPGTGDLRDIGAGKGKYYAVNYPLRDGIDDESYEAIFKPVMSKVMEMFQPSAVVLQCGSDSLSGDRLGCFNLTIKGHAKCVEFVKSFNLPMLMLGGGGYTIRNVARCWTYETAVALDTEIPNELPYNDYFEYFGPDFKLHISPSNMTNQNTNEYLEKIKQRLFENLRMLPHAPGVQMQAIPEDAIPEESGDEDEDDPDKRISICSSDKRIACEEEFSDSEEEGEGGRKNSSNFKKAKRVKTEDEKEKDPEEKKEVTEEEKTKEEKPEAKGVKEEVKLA
# Procedure: as §1, §2
inhibition at 10 µM (human recombinant HDAC6),IC50 (human recombinant HDAC1),SMILES,HDAC inhibition in cells at 5 μM (in words) (HDAC in HeLa cells; 5 μM),IC50 (HDAC in HeLa cells),HDAC6 inhibition (in words) (human recombinant HDAC6)
39%,28 ± 2 nM,CCCC[C@H]1NC(=O)C[C@@H](/C=C/CCC(=O)NO)OC(=O)C[C@H](O)[C@@H]([C@@H](C)CC)NC(=O)[C@@H](C)NC1=O [compound 8],no HDAC inhibition,,
30%,12.3 ± 1.6 nM,CCCC[C@H]1NC(=O)C[C@@H](/C=C/CCSC(C)=O)OC(=O)C[C@H](O)[C@@H]([C@@H](C)CC)NC(=O)[C@@H](C)NC1=O [compound 33],,34 ± 2.2 nM,

SMILES,inhibition at 10 µM (human recombinant HDAC6),IC50 (human recombinant HDAC1),HDAC inhibition in cells at 5 μM (in words) (HDAC in HeLa cells; 5 μM),IC50 (HDAC in HeLa cells),HDAC6 inhibition (in words) (human recombinant HDAC6)
CCCC[C@H]1NC(=O)C[C@@H](/C=C/CCSC(C)=O)OC(=O)C[C@H](O[Si](C)(C)C(C)(C)C)[C@@H]([C@@H](C)CC)NC(=O)[C@@H](C)NC1=O [compound 32],< 5%,18700 ± 8900 nM,,58600 ± 1300 nM,not inhibited
